Values of other authors in patent US20050147632A1, “Virally infected plants as a source of insect reppellants/attractents” (priority 2002, published 2005).

System: neighboring plants
Conditions: Shulaev et al., Nature 385: 718-721, 1997

## COC(=O)c1ccccc1O [methyl salicylate]
  induction of plant pathogen resistance: capable of inducing plant pathogen resistance in neighboring plants
